Data published in patent US4859664A, “Derivatives of 2,3,4,5,6,7-hexahydro-2,7-methano-1,5-benzoxazonines and -1,4-benzoxazonines, processes for their production and their use as pharmaceuticals” (priority 1986, dated 1989).
Structures can show the parent of a compound that is named as a salt. Where two headings read alike, the source gives them in different places.

Key:
[1] = influencing of the amphetamine group toxicity; assay type: in vivo, male NMRI mice; conditions: amphetamine control group, 15 mg. s.c.
Method: (§1) […]. They were given a standard feed and water ad libitum up to the commencement of the experiments.
(§2) The test compounds were administered in a volume of 10 ml./kg./body weight per mouse. As carrier, there was used physiological sodium chloride solution or a suspension of 0.5% tragacanth in physiological sodium chloride solution.
3. Influencing of the amphetamine group toxicity.
There was investigated the influence of the test compounds on the mortality of amphetamine-treated, aggregated mice. The dosaging of d-amphetamine was 15 mg./kg., which should permit the recognition not only of a synergism but also of an antagonism towards a sympathomimetic compound. Carrying out the experiment:
30 minutes after the subcutaneous administration of the test substance, the animals received subcutaneously 15 mg./kg. of d-amphetamine sulphate. The number of dead animals was recorded after 2, 4 and 7 hours. For the maintenance of the group size, the dead animals were replaced by untreated animals (6 animals/dosage group).

[2] = testing for ataxia (rotating rod test); assay type: in vivo, male NMRI mice
Method: (§3) For the pharmacological investigations described in the following, there were used male NMRI mice with a weight of from 15 to 30 g. The animals were kept under usual laboratory conditions, randomised and subjected to a light-dark change with a 12 hour rhythm. They were given a standard feed and water ad libitum up to the commencement of the experiments.
as §2
There was used the rotating rod test (see F. Gross et al., Schweiz. Med. Wschr., 85, 305/1955).
5 animals per dosage group were trained to keep themselves on a horizontally rotating rod made of synthetic resin (16 rpm). 40, 80 and 120 minutes after the subcutaneous administration of the test compounds, the animals were again tested. From the number of animals which fell off prematurely, there was determined the disturbance of the movement coordination.

[3] = tonus reduction on striated musculature; assay type: in vivo, male NMRI mice; conditions: 5 mg./kg. s.c.
Method: as §3, §2
6. Tonus reduction on striated musculature.
The test used is described by J. P. Chambon et al. (Arzneimittelforschung (Drug Research), 35 (II), (10), 1572/1985).
5 animals per dosage group were placed with their front paws on a horizontal metal rod (diameter 3 mm., length 20 cm.) which was fixed 30 cm. above a laboratory bench. Mice with normal muscle tonus climbed within 5 seconds on to the rod with at least one rear paw.
40, 80 and 120 minutes after the subcutaneous administration of the test compound, the animals were again tested for this ability and the number of incapable animals was recorded.

[4] = assay type: in vivo, male NMRI mice; conditions: given without sign
Method: They were given a standard feed and water ad libitum up to the commencement of the experiments.
as §2
(§4) The experimental results are given as average values with a mean error of the average value (x±S.E.M.). The ED50 values were calculated according to Litchfield and Wilcoxon (J. Pharmacol. Exp. Ther., 96, 99/1949). The compounds were thereby tested in 4 dosages (p≤0.5).
(§5) For the significance calculation, there was used Student's t test (see Angewandte Statistik, pub. Stringer Verlag, Berlin, Heidelberg, 242/1983), as well as the range sum test of Mann and Withney (Ann. Math. stat., 50, 1818/1947).
(§6) 1.1. In the acetic acid writhing test (see R. Koster et al., Fed. proc., 18, 412/1954), the typical stretching movements referred to as "writhing", were produced by the intraperitoneal administration of a 0.6% acetic acid solution. 30 minutes previously, the substance to be tested was administered subcutaneously (s.c.) or orally ([…].) to the animals. 3 minutes after administration of the acetic acid solution, the total number of stretching movements in a period of time of 10 minutes was ascertained. From the decrease of the stretching reactions due to the action of the test compound in comparison with non-pretreated control groups, there was determined the percentage inhibition action.
Naloxone-antagonistic action in the writhing test.
20 Minutes before the subcutaneous administration of the test compounds, the animals were given 20 mg./kg. naloxone hydrochloride subcutaneously. The further carrying out of the experiments was as described above.

[5] = assay type: in vivo, male NMRI mice
Method: as §1, §2, §4, §5, §6

[6] = influencing of hexobarbital narcosis; assay type: in vivo, male NMRI mice
Method: as §1, §2, §4
4. Influencing of hexobarbital narcosis.
The test compounds were administered subcutaneously to 5 animals per dosage group. After 30 minutes, 100 mg./kg. hexobarbital sodium was administered intraperitoneally. 2 to 3 minutes after this injection, the animals allowed themselves to be laid on their backs. For each animal, there was measured the time in minutes from the commencement of the back position up to the time when the animals themselves twice successively again assumed the abdominal position.

[7] = assay type: in vivo, male NMRI mice; remark: listed apart in the source
Method: as §1, §2
2. Development of dependency.
Withdrawal jumps of the mouse (see J. K. Saelens et al., Arch. Int. Pharmacodyn. Ther., 190, 213/1971).
Mice which were dependent upon morphine or other opiates react, when treated with morphine antagonists, with a flight reaction (see F. Huidobro and C. Maggiolo, Arch. Int. Pharmacodyn. Ther., 158, 97/1965); E. L. Way et al., Science, 162, 1290/1968). This flight reaction manifests itself in very vigorous jumping reactions which continue for about 10 minutes. From the number of reacting animals and especially from the jump frequency per animal, there can be deduced the strength of the withdrawal symptoms and thus the degree of dependency upon the test compound. Carrying out of the test:
The test and standard compounds were administered subcutaneously according to the scheme shown in the following Table III in increasing dosages over the course of 2 days.
For the provocation of the withdrawal jumps, the animals received intraperitoneally, 2 hours after the last compound administration, 30 mg./kg. naloxone hydrochloride.
Immediately after the administration of the naloxone, the animals were placed individually in a 5 liter glass beaker. Subsequently, the number of jump movements was recorded during the course of 10 minutes. For evaluation, the number of animals reacting the withdrawal jumps, as well as the average number of jumps per animal, was used.
The animals of the naloxone control group were, up to the administration of naloxone, treated with a 0.9% aqueous solution of sodium chloride (6 animals/dosage group).

For `CC(N)Cc1ccccc1` (stereo not shown) [amphetamine, reference compound], the “% of deceased animals after 2 hrs.” value [1] was 0%, the “% of deceased animals after 4 hrs.” value [1] was 33% and the “% of deceased animals after 7 hrs.” value [1] was 0%. For the same molecule, the “% of deceased animals, total” value [1] was 33.3%.

For `CN1C(=O)CN=C(c2ccccc2)c2cc(Cl)ccc21` [diazepam, reference compound], the “change of the maintenance time in % compared with the control group, after 40 min.” value ([2]; 5 mg/kg s.c.) was -87%, the “change of the maintenance time in % compared with the control group, after 80 min.” value ([2]; 5 mg/kg s.c.) was -73% and the “change of the maintenance time in % compared with the control group, after 120 min.” value ([2]; 5 mg/kg s.c.) was -22%. For the same molecule, the relaxing action [3] was 93%.

For `COc1cccc(C2(O)CCCCC2CN(C)C)c1` (stereo not shown) [tramadol, 2-[(dimethylamino)-methyl]-1-(3-methoxyphenyl)-cyclohexanol, reference compound], the “change in % (with vs without naloxone)” value ([4]; 10 mg/kg s.c.) was 39.0% and the “change in % (with vs without naloxone)” value ([4]; 20 mg/kg s.c.) was 30.7%.

In the case of `CCC1(c2ccccc2)C(=O)NC(=O)NC1=O` [phenobarbital, reference compound], the “change of the maintenance time in % compared with the control group, after 40 min.” value ([2]; 30 mg/kg s.c.) is reported as -29%, the “change of the maintenance time in % compared with the control group, after 80 min.” value ([2]; 30 mg/kg s.c.) is reported as -21% and the “change of the maintenance time in % compared with the control group, after 120 min.” value ([2]; 30 mg/kg s.c.) is reported as -37%. For the same molecule, the “change of the maintenance time in % compared with the control group, after 40 min.” value ([2]; 50 mg/kg s.c.) was -54%, the “change of the maintenance time in % compared with the control group, after 80 min.” value ([2]; 50 mg/kg s.c.) was -46% and the “change of the maintenance time in % compared with the control group, after 120 min.” value ([2]; 50 mg/kg s.c.) was -42%.

In the case of `CC1CCCC2C3CNCCC12Oc1ccccc13` (stereo not drawn) [Example 12, B/C-trans-1,2,3,4,4a,9a-hexahydro-4-methyl-4a,9-(3-azabutano)-xanthene], the “inhibiting action in writhing test” value ([5]; 25 mg./kg. s.c.) is reported as 24% and the “inhibiting action in writhing test” value ([5]; 50 mg./kg. s.c.) is reported as 79%.

For `CC(N)Cc1ccccc1.O=S(=O)(O)O` (stereo not shown) [amphetamine sulphate, reference compound], the “change with regard to hexabarbital sodium” value ([6]; 1.0 mg/kg sc) was -43.2 min and the “period of narcosis ± SEM” value ([6]; 1.0 mg/kg sc, hexobarbital sodium 100 mg./kg. i.p.) was 49.2 ± 14.6 min.

With `COc1cccc(C2(O)CCCCC2CN(C)C)c1` (stereo not shown) [tramadol HCl, reference compound] the “% of reacting animals” value ([7]; s.c. increasing dosages over 2 days, naloxone i.p., 10 minutes) was 83.3%.

For `CN1CC[C@]23c4c5ccc(O)c4O[C@H]2[C@@H](O)C=C[C@H]3[C@H]1C5.Cl` [morphine HCl, reference compound], the “% of reacting animals” value ([7]; mouse, in vivo) was 100%.

In the case of `COc1ccc2c3c1O[C@H]1[C@@H](O)C=C[C@H]4[C@@H](C2)N(C)CC[C@@]341` [codeine phosphate, reference compound], the “change with regard to hexabarbital sodium” value ([6]; 50 mg/kg sc) is reported as “+51.2 min” and the “period of narcosis ± SEM” value ([6]; 50 mg/kg sc, hexobarbital sodium 100 mg./kg. i.p.) is reported as 143.6 ± 10.5 min.

With `CN1C(=O)NC(=O)C(C)(C2=CCCCC2)C1=O` (stereo not shown) [hexobarbital, reference compound] the “period of narcosis ± SEM” value ([6]; hexobarbital alone, 100 mg/kg ip) was 92.4 ± 17.1 min.
